{"source": "patent US20260373103A1", "about": "“COMPOSITIONS AND METHODS FOR PREVENTING CARDIOMYOPATHY” (OHIO STATE INNOVATION FOUNDATION, priority 2022, published 2026)", "tested_on": "HeLa-Parkin or HeLa-Parkin/USP30 cells", "assay": "Mitochondrial membrane potential (TMRM signal)", "format": "cell-based", "settings": "FCCP 10 μM", "protocol": "ΔΨm was measured using a fluorescence microplate reader (BioTek Instruments) in cells preincubated with Tetramethylrhodamine methyl ester (TMRM, Thermo Scientific) following manufacturer's instructions. Cells were washed in PBS before resuspension in Hank's balanced salt solution (HBSS; 156 mM NaCl, 3 mM KCl, 2 mM MgSO4, 1.25 mM KH2PO4, 2 mM CaCl2), 10 mM glucose and 10 mM HEPES; pH adjusted to 7.35 with NaOH) (1.0×10^6 cells/ml) containing 50 nM TMRM. For each individual experiment, average TMRM fluorescence was normalized to control cells.\nWe initially analyzed mitochondrial function using Tetramethylrhodamine (TMRM), a dye requiring mitochondrial membrane potential to accumulate within the mitochondria.", "data": [{"compound": "N#CC(C#N)=NNc1ccc(OC(F)(F)F)cc1", "note": "[FCCP, Carbonyl cyanide-p-trifluoromethoxyphenylhydrazone, reference compound]", "values": [{"measurement": "TMRM staining (mitochondrial membrane potential)", "result": "significant loss of staining"}]}]}
